Data from US20110250135A1, “Piperazine Derivatives for Binding and Imaging Amyloid Plaques and Their Use” (Bayer Schering Pharma Aktiengesellschaft, priority 2008, published 2011).

Tests used:
[1] = biological target: T1, Aβ plaques (Homo sapiens, UniProt P05067); test: Autoradiographical analysis of binding to cryosections from cortex of AD patients and controls; conditions: F-18 labeled compound; Alzheimer's disease patients (AD) vs controls without Aβ plaques
T1 construct: controls without Aβ plaques; from tissue; host or cells: frontal lobe / cortex sections (frozen and paraffin) from AD patients, FTD patients and age-matched controls
T1 sequence (P05067 672-713 limits assumed): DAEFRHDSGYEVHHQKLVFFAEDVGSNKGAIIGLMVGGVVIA
Description: Fresh frozen as well as paraffin embedded sections of the frontal lobe from Alzheimer's dementia patients, frontotemporal dementia patients and age matched controls were used for the study. Frozen sections, sliced at 18 μm thickness on a cryostate (Leica, Germany) and paraffin sections, sliced on a sliding microtom (Leica) at a thickness of 6 μm, were mounted onto glass slides (Superfrost Plus, Fa.Menzel, Braunschweig Germany). Frozen sections were allowed to adhere to the slides for several nights at −20° C. The paraffin sections were deparaffinized using routine histological methods. For binding studies sections were incubated with the F-18 labeled test compound at 10 Bq/μl diluted in 25 mM Hepes buffer, pH 7.4, 0.1% (BSA) (200-300 μl/slide) for 1.5 hour at room temperature in a humidified chamber. For blocking experiments a 1000-fold access of the unlabeled test substance was added to the incubation mixture. After hybridization, sections were washed four times with Hepes buffer, 0.1% BSA (or alternatively two times with 40% ethanol) and finally dipped two times into dest. water for 10 sec. The air-dried sections were exposed to imaging plates and signals were detected by a phosphoimager device (Fuji BAS5000).

[2] = Biodistribution: organ distribution of F-18 signal in mice; format: in vivo, male NMRI mice; conditions: for Organ distribution of F-18 signal, intestine: intestine (with content); for Organ distribution of F-18 signal, stomach: stomach (without content)
Method: Biodistribution and excretion studies were performed in male NMRI mice (body weight app. 30g; 3 animals per time point). The animals were kept under normal laboratory conditions at a temperature of 22±2° C. and a dark/light rhythm of 12 hours. Food and water were provided ad libitium. During an acclimation period of at least 3 days before the beginning of the study animals were clinically examined to ascertain the absence of abnormal clinical signs. At 2, 5, 30, 60, 240 min post intravenous injection via the tail vein of ca. 150 kBq in 100 μl of the test compound, urine and feces were quantitatively collected. At the same time points, animals were sacrificed by decapitation and under isoflurane anaesthesia and the following organs and tissues were removed for the determination of radioactivity using a gamma-counter: spleen, liver, kidney, lung, femur, heart, brain, fat, thyroid, muscle, skin, blood, tail, stomach (without content), testicle, intestine (with content), pancreas, adrenals, and the remaining body. For analysis the decay corrected percentage of the injected dose per tissue weight (% ID/g±standard deviation) was calculated.

In the case of `O=C(NCC(=O)N1CCN(c2ccc(OCc3ccccc3)cc2)CC1)c1cccc(OCC[18F])c1` [Example 3g, N-{2-[4-(4-Benzyloxy-phenyl)-piperazin-1-yl]-2-oxo-ethyl}-3-(2-[F-18]fluoro-ethoxy)benzamide], the “autoradiographical analysis of binding to cryosections from cortex” value [1] is reported as “Specific binding in plaque-rich regions of AD samples”, the “Organ distribution of F-18 signal, adrenals” value (“Organ distribution … adrenals” below) ([2]; 2 min post i.v. injection) is reported as 7.57 % ID/g and the “Organ distribution … adrenals” value ([2]; 5 min post i.v. injection) is reported as 10.67 % ID/g. The “Organ distribution … adrenals” value ([2]; 30 min post i.v. injection) was 4.49 % ID/g, the “Organ distribution … adrenals” value ([2]; 60 min post i.v. injection) was 1.77 % ID/g and the “Organ distribution … adrenals” value ([2]; 240 min post i.v. injection) was 1.03 % ID/g. The “Organ distribution of F-18 signal, blood” value ([2]; 2 min post i.v. injection) was 1.72 % ID/g, the “Organ distribution of F-18 signal, blood” value ([2]; 5 min post i.v. injection) was 2.12 % ID/g and the “Organ distribution of F-18 signal, blood” value ([2]; 30 min post i.v. injection) was 1.85 % ID/g. For the same compound, the “Organ distribution of F-18 signal, blood” value ([2]; 60 min post i.v. injection) was 1.32 % ID/g, the “Organ distribution of F-18 signal, blood” value ([2]; 240 min post i.v. injection) was 0.57 % ID/g and the “Organ distribution of F-18 signal, brain” value ([2]; 2 min post i.v. injection) was 5.15 % ID/g. For the same compound, the “Organ distribution of F-18 signal, brain” value ([2]; 5 min post i.v. injection) was 4.14 % ID/g, the “Organ distribution of F-18 signal, brain” value ([2]; 30 min post i.v. injection) was 1.66 % ID/g and the “Organ distribution of F-18 signal, brain” value ([2]; 60 min post i.v. injection) was 0.93 % ID/g. The “Organ distribution of F-18 signal, brain” value ([2]; 240 min post i.v. injection) was 0.42 % ID/g, the “Organ distribution of F-18 signal, fat” value ([2]; 2 min post i.v. injection) was 1.97 % ID/g and the “Organ distribution of F-18 signal, fat” value ([2]; 5 min post i.v. injection) was 2.44 % ID/g. For the same compound, the “Organ distribution of F-18 signal, fat” value ([2]; 30 min post i.v. injection) was 4.26 % ID/g, the “Organ distribution of F-18 signal, fat” value ([2]; 60 min post i.v. injection) was 2.38 % ID/g and the “Organ distribution of F-18 signal, fat” value ([2]; 240 min post i.v. injection) was 0.34 % ID/g. The “Organ distribution of F-18 signal, femur” value ([2]; 2 min post i.v. injection) was 1.95 % ID/g, the “Organ distribution of F-18 signal, femur” value ([2]; 5 min post i.v. injection) was 1.79 % ID/g and the “Organ distribution of F-18 signal, femur” value ([2]; 30 min post i.v. injection) was 1.05 % ID/g. For the same compound, the “Organ distribution of F-18 signal, femur” value ([2]; 60 min post i.v. injection) was 1.11 % ID/g, the “Organ distribution of F-18 signal, femur” value ([2]; 240 min post i.v. injection) was 3.06 % ID/g and the “Organ distribution of F-18 signal, heart” value ([2]; 2 min post i.v. injection) was 15.57 % ID/g. For the same compound, the “Organ distribution of F-18 signal, heart” value ([2]; 5 min post i.v. injection) was 8.25 % ID/g, the “Organ distribution of F-18 signal, heart” value ([2]; 30 min post i.v. injection) was 3.47 % ID/g and the “Organ distribution of F-18 signal, heart” value ([2]; 60 min post i.v. injection) was 2.07 % ID/g. The “Organ distribution of F-18 signal, heart” value ([2]; 240 min post i.v. injection) was 0.61 % ID/g, the “Organ distribution of F-18 signal, intestine” value (shortened to “Organ distribution … intestine”) ([2]; 2 min post i.v. injection) was 1.93 % ID/g and the “Organ distribution … intestine” value ([2]; 5 min post i.v. injection) was 1.87 % ID/g. For the same compound, the “Organ distribution … intestine” value ([2]; 30 min post i.v. injection) was 4.58 % ID/g, the “Organ distribution … intestine” value ([2]; 60 min post i.v. injection) was 6.47 % ID/g and the “Organ distribution … intestine” value ([2]; 240 min post i.v. injection) was 8.50 % ID/g. For the same compound, the “Organ distribution of F-18 signal, kidney” value (from here on “Organ distribution … kidney”) ([2]; 2 min post i.v. injection) was 15.52 % ID/g, the “Organ distribution … kidney” value ([2]; 5 min post i.v. injection) was 14.38 % ID/g and the “Organ distribution … kidney” value ([2]; 30 min post i.v. injection) was 11.43 % ID/g. The “Organ distribution … kidney” value ([2]; 60 min post i.v. injection) was 7.70 % ID/g, the “Organ distribution … kidney” value ([2]; 240 min post i.v. injection) was 1.05 % ID/g and the “Organ distribution of F-18 signal, liver” value ([2]; 2 min post i.v. injection) was 6.35 % ID/g. For the same compound, the “Organ distribution of F-18 signal, liver” value ([2]; 5 min post i.v. injection) was 13.36 % ID/g, the “Organ distribution of F-18 signal, liver” value ([2]; 30 min post i.v. injection) was 8.75 % ID/g and the “Organ distribution of F-18 signal, liver” value ([2]; 60 min post i.v. injection) was 5.04 % ID/g. For the same compound, the “Organ distribution of F-18 signal, liver” value ([2]; 240 min post i.v. injection) was 1.44 % ID/g, the “Organ distribution of F-18 signal, lung” value ([2]; 2 min post i.v. injection) was 5.58 % ID/g and the “Organ distribution of F-18 signal, lung” value ([2]; 5 min post i.v. injection) was 4.05 % ID/g. For the same compound, the “Organ distribution of F-18 signal, lung” value ([2]; 30 min post i.v. injection) was 2.55 % ID/g, the “Organ distribution of F-18 signal, lung” value ([2]; 60 min post i.v. injection) was 1.66 % ID/g and the “Organ distribution of F-18 signal, lung” value ([2]; 240 min post i.v. injection) was 0.59 % ID/g. For the same compound, the “Organ distribution of F-18 signal, muscle” value (from here on “Organ distribution … muscle”) ([2]; 2 min post i.v. injection) was 3.95 % ID/g, the “Organ distribution … muscle” value ([2]; 5 min post i.v. injection) was 3.17 % ID/g and the “Organ distribution … muscle” value ([2]; 30 min post i.v. injection) was 1.95 % ID/g. The “Organ distribution … muscle” value ([2]; 60 min post i.v. injection) was 1.31 % ID/g, the “Organ distribution … muscle” value ([2]; 240 min post i.v. injection) was 0.30 % ID/g and the “Organ distribution of F-18 signal, pancreas” value (from here on “Organ distribution … pancreas”) ([2]; 2 min post i.v. injection) was 4.96 % ID/g. For the same compound, the “Organ distribution … pancreas” value ([2]; 5 min post i.v. injection) was 4.26 % ID/g, the “Organ distribution … pancreas” value ([2]; 30 min post i.v. injection) was 2.21 % ID/g and the “Organ distribution … pancreas” value ([2]; 60 min post i.v. injection) was 1.22 % ID/g. The “Organ distribution … pancreas” value ([2]; 240 min post i.v. injection) was 0.32 % ID/g, the “Organ distribution of F-18 signal, skin” value ([2]; 2 min post i.v. injection) was 1.72 % ID/g and the “Organ distribution of F-18 signal, skin” value ([2]; 5 min post i.v. injection) was 2.15 % ID/g. The “Organ distribution of F-18 signal, skin” value ([2]; 30 min post i.v. injection) was 1.93 % ID/g, the “Organ distribution of F-18 signal, skin” value ([2]; 60 min post i.v. injection) was 1.29 % ID/g and the “Organ distribution of F-18 signal, skin” value ([2]; 240 min post i.v. injection) was 0.42 % ID/g. For the same compound, the “Organ distribution of F-18 signal, spleen” value (“Organ distribution … spleen” below) ([2]; 2 min post i.v. injection) was 1.73 % ID/g, the “Organ distribution … spleen” value ([2]; 5 min post i.v. injection) was 2.22 % ID/g and the “Organ distribution … spleen” value ([2]; 30 min post i.v. injection) was 1.28 % ID/g. For the same compound, the “Organ distribution … spleen” value ([2]; 60 min post i.v. injection) was 0.86 % ID/g, the “Organ distribution … spleen” value ([2]; 240 min post i.v. injection) was 0.36 % ID/g and the “Organ distribution of F-18 signal, stomach” value (“Organ distribution … stomach” for short) ([2]; 2 min post i.v. injection) was 4.78 % ID/g. For the same compound, the “Organ distribution … stomach” value ([2]; 5 min post i.v. injection) was 4.49 % ID/g, the “Organ distribution … stomach” value ([2]; 30 min post i.v. injection) was 2.20 % ID/g and the “Organ distribution … stomach” value ([2]; 60 min post i.v. injection) was 1.53 % ID/g. For the same compound, the “Organ distribution … stomach” value ([2]; 240 min post i.v. injection) was 0.82 % ID/g, the “Organ distribution of F-18 signal, tail” value ([2]; 2 min post i.v. injection) was 8.94 % ID/g and the “Organ distribution of F-18 signal, tail” value ([2]; 5 min post i.v. injection) was 9.06 % ID/g. For the same compound, the “Organ distribution of F-18 signal, tail” value ([2]; 30 min post i.v. injection) was 4.73 % ID/g, the “Organ distribution of F-18 signal, tail” value ([2]; 60 min post i.v. injection) was 2.57 % ID/g and the “Organ distribution of F-18 signal, tail” value ([2]; 240 min post i.v. injection) was 1.98 % ID/g. The “Organ distribution of F-18 signal, testicle” value (shortened to “Organ distribution … testicle”) ([2]; 2 min post i.v. injection) was 1.19 % ID/g, the “Organ distribution … testicle” value ([2]; 5 min post i.v. injection) was 1.58 % ID/g and the “Organ distribution … testicle” value ([2]; 30 min post i.v. injection) was 1.44 % ID/g. For the same compound, the “Organ distribution … testicle” value ([2]; 60 min post i.v. injection) was 1.84 % ID/g, the “Organ distribution … testicle” value ([2]; 240 min post i.v. injection) was 0.38 % ID/g and the “Organ distribution of F-18 signal, thyroid” value (“Organ distribution … thyroid” for short) ([2]; 2 min post i.v. injection) was 3.87 % ID/g. For the same compound, the “Organ distribution … thyroid” value ([2]; 5 min post i.v. injection) was 3.67 % ID/g, the “Organ distribution … thyroid” value ([2]; 30 min post i.v. injection) was 1.78 % ID/g and the “Organ distribution … thyroid” value ([2]; 60 min post i.v. injection) was 1.04 % ID/g. The “Organ distribution … thyroid” value ([2]; 240 min post i.v. injection) was 0.56 % ID/g.
